Assays:
GBM neurospheres = assay: Differentiation of GBM neurospheres (neuroprogenitor markers, adhesion); assay type: cell-based, human; conditions: 7 days without EGF or FGF; for adhesion to the culture plate / morphology versus control cells: GBM neurospheres, poly-L-lysine
Protocol: FIG. 7. TGFβ and LIF prevent the differentiation of GBM neurospheres. (A) Immunocytochemistry of the indicated proteins was performed in neurospheres derived from GBM1 treated with 100 pM TGFβ1 or 20 ng/ml LIF for 7 days in the absence of growth factors and the last 3 days on slides coated with poly-L-lysine. (B) The mRNA levels of Musashi-1 (Msi-1), Sox2 and Nestin were determined in GBM1 neurospheres after 7 days of the indicated treatments without growth factors. The RNA levels of 18S were used as an internal normalization control.
The immunocytochemistry of neurospheres and differentiated neurospheres was performed as described (Geshwind et al., 2001) using the following antibodies: anti-nestin (Chemicon), anti-GFAP (Dako), anti-TuJ1 (Chemicon), anti-04 (Chemicon), anti-Sox2 (Chemicon), anti-α-tubulin (Sigma). The nuclei were counterstained with 4′,6-diamino-2-phenylindole (DAPI).
(§1) qRT-PCR was performed using Taqman probes from Applied Biosystems, according to the manufacturer's recommendations. The reactions were carried out in a ABI 7000 sequence detector (Perkin Elmer) and the results were expressed as the fold change calculated by means of the DDCt method relative to the control sample or the first quantified sample. The ribosomal unit of 18S or β-actin were used as internal normalization controls.
The neurospheres derived from GBMs grown in the absence of growth factors and seeded in poly-L-lysine-coated plates tend to differentiate losing the expression of the neuroprogenitor markers Musashi-1, Sox2 and Nestin, and being adhered to the culture plate. It was decided to evaluate the effect of TGFβ and LIF on this differentiation process. The neurospheres were cultured in the presence of TGFβ or LIF without EGF or FGF for 7 days and subsequently processed for immunohistochemical staining and qRT-PCR assays for determining the levels of the neuroprogenitor markers Musashi-1, Sox2 and Nestin.

[1] = system: LIF expression in normal human neuroprogenitors; assay: LIF mRNA in neurospheres of normal human neuroprogenitors; assay type: cell-based; conditions: 100 pM, 3 hours, compared with GBM neurospheres
Protocol: FIG. 8. Effect of TGFβ on the capacity of self-renewal of normal human neuroprogenitors. (A) Immunocytochemistry of the indicated markers was performed in human neuroprogenitor neurospheres. (B) Neurospheres of the sample of GBM1 and of human neuroprogenitors were incubated with the indicated members of the 100 pM TGFβ family for 3 hours and the mRNA levels of LIF were determined. (C, D) Neurosphere cells of normal human neuroprogenitors were incubated in the same conditions that have been described above in FIG. 1D in the presence of 100 pM TGFβ1 or 20 ng/ml LIF for 7 days and the number of newly formed neurospheres (C) and the number total of cells (D) were determined.
The U373MG and A172 cells were a generous gift from J. Rich and D. Bigner and were cultured in DMEM with 10% fetal bovine serum (FBS). The primary culture of tumor cells (PCTC) and the GBM neurospheres were generated as described (Bruna et al., (2007) Cancer Cell 11, 147-160; Gunther et al., (2008) Oncogene. May 1; 27(20):2897-909). Briefly, the samples of tumors were processed in the 30 minutes after the surgical resection. The ground pieces of the samples of human gliomas were digested with 200 U/ml collagenase I (Sigma) and 500 U/ml of DNase I (Sigma) in PBS for 2 hours at 37° C. and with constant vigorous stirring. The suspension of individual cells was filtered through a 70 μm cell filter (BD Falcon) and washed with PBS. […]
as §1, with “The ribosomal unit of 18S or β-actin were used as internal normalization controls.” left out
It was decided to assess whether this effect was specific to tumor cells or was also present in normal neuroprogenitor cells. […] First, it was determined if TGFβ induced LIF in normal human neuroprogenitors. […]

[2] = system: LIF expression in mouse neuroprogenitors; assay: LIF induction in mouse neuroprogenitors; assay type: cell-based; conditions: from mouse embryos or the subventricular area of adult mice; data not shown

| Substance | expression of Musashi-1, Sox2 and Nestin (immunocytochemistry, qRT-PCR) (GBM neurospheres; GBM1 neurospheres, 100 pM TGFβ1 or 20 ng/ml LIF) | adhesion to the culture plate / morphology versus control cells (GBM neurospheres) | induction of LIF mRNA in normal human neuroprogenitor neurospheres [1] | induction of LIF in mouse neuroprogenitors [2] |
| --- | --- | --- | --- | --- |
| LIF: recombinant leukemia inhibitory factor, an IL-6 type cytokine (Chemicon) | maintained the expression | adhered less to the culture plate |  |  |
| TGFβ: TGFβ1 (R&D Systems), used at 100 pM according to the figure legends |  | adhered less to the culture plate | did not induce LIF | did not induce LIF |

Reference: patent publication US11999782B2, “Therapeutic agents for the treatment of diseases associated with undesired cell proliferation” (Fundació Privada Institutció Catalana de Recerca I Estudis …, priority 2009, dated 2024)
